In patent US11464770B2, “Anticancer pharmaceutical composition” (NATIONAL CANCER CENTER, priority 2016, dated 2022):
Like-named read-outs stand apart in the source and are kept apart here.

Tested on: pancreatic cancer cell lines (e.g. MIA PaCa-2)
Assay: Cell based assay, cell viability (CellTiter-Glo), pancreatic cancer cell lines
Settings: Homo sapiens
Description: Commercially available bladder cancer, prostate cancer, lung cancer, breast cancer, blood cancer, pancreatic cancer, colorectal cancer, brain cancer, neuroblastoma, melanoma, liver cancer, cervical carcinoma, ovarian cancer, renal cancer, and papilloma cell lines were each treated with trypsin-EDTA and cultured, followed by being seeded in each well of a 96 well plate. After 24 hours of treatment at constant temperature, the respective cells were treated with the candidate compound so that a final concentration became 0 to 2 μM. The treated cells were additionally cultured for 72 hours, and cell viability was measured by using an ATP detection method (CellTiter-Glo® Luminescent Cell Viability Assay, Promega).

[1] = pancreatic cancer cell line AsPC-1, 72 hours, read-out: IC50, AsPC-1
[2] = pancreatic cancer cell line BxPC-3, 72 hours, read-out: IC50, BxPC-3
[3] = pancreatic cancer cell line CFPAC-1, 72 hours, read-out: IC50, CFPAC-1
[4] = pancreatic cancer cell line Capan-1, 72 hours, read-out: IC50, Capan-1
[5] = pancreatic cancer cell line Capan-2, 72 hours, read-out: IC50, Capan-2
[6] = pancreatic cancer cell line MIA PaCa-2, 72 hours, read-out: IC50, MIA PaCa-2
[7] = pancreatic cancer cell line PANC-1, 72 hours, read-out: IC50, PANC-1

| Compound | IC50 [1] [µM] | IC50 [2] [µM] | IC50 [3] [µM] | IC50 [4] [µM] | IC50 [5] [µM] | IC50 [6] [µM] | IC50 [7] [µM] |
| --- | --- | --- | --- | --- | --- | --- | --- |
| CC(=O)c1c(SCc2cccc(I)c2)[nH]c2c(Br)ccc(Cl)c2c1=O [Compound 47, 3-acetyl-8-bromo-5-chloro-2-((3-iodobenzyl)thio)quinolin-4(1H)-one] | > 2 | > 2 | > 10 | > 2 | > 2 | > 2 | > 2 |
| CC(=O)c1c([S+]([O-])Cc2cccc(I)c2)[nH]c2c(Br)ccc(Cl)c2c1=O (stereo not drawn) [Compound 48, 3-acetyl-8-bromo-5-chloro-2-((3-iodobenzyl)sulfinyl)quinolin-4(1H)-one] | > 2 | > 2 | > 10 | > 2 | > 2 | > 2 | > 2 |
| CC(=O)c1c(SCc2ccccc2)nc2c(Br)ccc(Cl)c2c1O [Compound 52, 1-(2-(benzylthio)-8-bromo-5-chloro-4-hydroxyquinolin-3-yl)ethan-1-one] | > 2 | > 2 | > 10 | > 2 | > 2 | > 2 | > 2 |
| CC(=O)c1c([S+]([O-])Cc2ccccc2)nc2c(Br)ccc(Cl)c2c1O (stereo not drawn) [Compound 53, 1-(2-(benzylsulfinyl)-8-bromo-5-chloro-4-hydroxyquinolin-3-yl)ethan-1-one] | > 2 | > 2 | > 10 | > 2 | > 2 | > 2 | > 2 |
| CC(=O)c1c(S(=O)(=O)Cc2ccccc2)nc2c(Br)ccc(Cl)c2c1O [Compound 54, 1-(2-(benzylsulfonyl)-8-bromo-5-chloro-4-hydroxyquinolin-3-yl)ethan-1-one] | > 2 | > 2 | > 10 | > 2 | > 2 | > 2 | > 2 |
| CC(=O)c1c([S+]([O-])Cc2ccccc2C#N)[nH]c2c(Br)ccc(Cl)c2c1=O (stereo not drawn) [Compound 58, 2-(((3-acetyl-8-bromo-5-chloro-4-oxo-1,4-dihydroquinolin-2-yl)sulfinyl)methyl)benzonitrile] | > 2 | > 2 | > 10 | > 2 | > 2 | 0.81 | > 2 |
| CC(=O)c1c([S+]([O-])Cc2ccc(C(=O)c3ccccc3)cc2)[nH]c2c(Br)ccc(Cl)c2c1=O (stereo not drawn) [Compound 63, 3-acetyl-2-((4-benzoylbenzyl)sulfinyl)-8-bromo-5-chloroquinolin-4(1H)-one] | > 2 | > 2 | > 10 | > 2 | > 2 | > 2 | > 2 |

Results, then the compound that gave them:

| IC50 [1] [µM] | IC50 [2] [µM] | IC50 [3] [µM] | IC50 [4] [µM] | IC50 [5] [µM] | IC50 [6] [µM] | IC50 [7] [µM] | Compound |
| --- | --- | --- | --- | --- | --- | --- | --- |
| > 2 | > 2 | > 10 | > 2 | > 2 | > 2 | > 2 | CC(=O)c1c(SCc2cccc(F)c2)[nH]c2c(Br)ccc(Cl)c2c1=O [Compound 49, 3-acetyl-8-bromo-5-chloro-2-((3-fluorobenzyl)thio)quinolin-4(1H)-one] |
| > 2 | > 2 | > 10 | > 2 | > 2 | > 2 | > 2 | COCSc1[nH]c2c(Br)ccc(Cl)c2c(=O)c1C(C)=O [Compound 61, 3-acetyl-8-bromo-5-chloro-2-((methoxymethyl)thio)quinolin-4(1H)-one] |
| > 2 | > 2 | > 10 | > 2 | > 2 | > 2 | > 2 | CC(=O)c1c(S)[nH]c2c(Br)ccc(Cl)c2c1=O [Compound 62, 3-acetyl-8-bromo-5-chloro-2-mercaptoquinolin-4(1H)-one] |
| > 2 | > 2 | > 10 | > 2 | > 2 | > 2 | > 2 | CC(=O)c1c([S+]([O-])CC#N)[nH]c2c(Br)ccc(Cl)c2c1=O (stereo not drawn) [Compound 65, 2-((3-acetyl-8-bromo-5-chloro-4-oxo-1,4-dihydroquinolin-2-yl)sulfinyl)acetonitrile] |
| > 2 | > 2 | > 10 | > 2 | > 2 | > 2 | > 2 | CC(=O)c1c(SCC#N)[nH]c2c(Br)ccc(Cl)c2c1=O [Compound 66, 2-((3-acetyl-8-bromo-5-chloro-4-oxo-1,4-dihydroquinolin-2-yl)thio)acetonitrile] |
